Patent US8575197B2, “Pyrolinone derivative and pharmaceutical composition comprising the same” (Shionogi & Co., Ltd., priority 2008, dated 2013)

target: human P2X3 receptor (Homo sapiens (Human), UniProt P56373); test: P2X3 receptor inhibition, ATP-evoked Fluo-3 calcium fluorescence (FDSS 3000); format: cell-based; conditions: C6BU-1 cell transfected with human P2X3 receptor gene; ATP-evoked Fluo-3 fluorescence
Procedure, shortened: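 C6BU-1 cells stably transfected with human P2X3, loaded with 4 μM Fluo-3-AM for 1 h at 37 °C in HEPES buffer pH 7.5 with probenecid. Compound added 5 min before 40 nM ATP solution; fluorescence followed 3 min. IC50 from ratio of peak post-ATP to baseline fluorescence.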

Chain of human P2X3 receptor (P56373 whole entry): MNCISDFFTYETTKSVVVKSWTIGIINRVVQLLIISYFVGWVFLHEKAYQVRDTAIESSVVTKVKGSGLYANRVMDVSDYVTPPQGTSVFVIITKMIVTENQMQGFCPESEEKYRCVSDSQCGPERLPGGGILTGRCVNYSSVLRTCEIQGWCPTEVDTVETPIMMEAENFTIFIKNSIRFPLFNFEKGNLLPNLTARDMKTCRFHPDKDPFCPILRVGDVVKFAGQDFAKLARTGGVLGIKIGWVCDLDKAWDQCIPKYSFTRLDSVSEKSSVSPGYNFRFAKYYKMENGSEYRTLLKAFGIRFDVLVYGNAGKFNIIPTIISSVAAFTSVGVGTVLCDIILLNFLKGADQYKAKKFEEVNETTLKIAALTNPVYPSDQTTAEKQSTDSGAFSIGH

| SMILES | IC50 [µM] |
| --- | --- |
| COc1cccc(OC)c1C1c2c(C(C)(C)C)n[nH]c2C(=O)N1c1ccc(-c2ccon2)cc1 (stereo not drawn) [II-060] | 0.538 |
| CC(C)(C)c1n[nH]c2c1C(c1ccccc1OC(F)(F)F)N(c1ccc(-c3ccon3)cc1)C2=O (stereo not drawn) [II-061] | 0.166 |
| COc1ccccc1C1c2c(C(C)C)n[nH]c2CN1c1ccc(-c2ccsc2)cc1 (stereo not drawn) [II-067] | 0.153 |
| COCc1ccccc1C1c2c(C(C)(C)C)n[nH]c2C(=O)N1c1ccc(-c2cc(C)no2)cc1 (stereo not drawn) [II-068] | 0.508 |
| COCc1ccccc1C1c2c(C(C)(C)C)n[nH]c2C(=O)N1c1ccc(-c2noc(C)n2)cc1 (stereo not drawn) [II-069] | 0.414 |
| COc1ccccc1C1c2c(C(C)(C)C)n[nH]c2C(=O)N1c1ccc(CN(C)C)cc1 (stereo not drawn) [II-072] | 0.739 |
| CC(C)(C)c1n[nH]c2c1C(c1ccccc1OCC(N)=O)N(c1ccc(-c3ccon3)cc1)C2=O (stereo not drawn) [II-075] | 0.153 |
| CNC(=O)COc1ccccc1C1c2c(C(C)(C)C)n[nH]c2C(=O)N1c1ccc(-c2ccon2)cc1 (stereo not drawn) [II-077] | 0.237 |
| CC(C)c1n[nH]c2c1C(c1ccccc1N)N(c1ccc(-c3ccsc3)cc1)C2=O (stereo not drawn) [II-081] | 0.189 |
| COc1ccccc1C1c2c(C(C)(C)C)n[nH]c2C(=O)N1c1ccc(OC(F)(F)F)cc1 (stereo not drawn) [II-097] | 0.358 |
| COc1ccc(N2C(=O)c3[nH]nc(C(C)(C)C)c3C2c2ccccc2OC)cc1 (stereo not drawn) [II-098] | 0.761 |
| CCc1ccccc1C1c2c(C(C)(C)C)n[nH]c2C(=O)N1c1ccc(-c2ccon2)cc1 (stereo not drawn) [II-106] | 0.226 |
| CC(C)(C)c1n[nH]c2c1C(c1ccccc1S(C)(=O)=O)N(c1ccc(-c3ccon3)cc1)C2=O (stereo not drawn) [II-112] | 0.389 |
| CC(C)(C)c1n[nH]c2c1C(c1ccccc1CO)N(c1ccc(-c3ccon3)cc1)C2=O (stereo not drawn) [II-113] | 0.838 |
| COc1ccc(-c2n[nH]c3c2C(c2ccccc2OCCO)N(c2nc4cc(OC)ccc4s2)C3=O)cc1 (stereo not drawn) [II-117] | 0.348 |
| COc1ccc(-c2n[nH]c3c2C(c2ccccc2OCCO)N(c2nc4ccc(OC)cc4s2)C3=O)cc1 (stereo not drawn) [II-118] | 0.429 |

| SMILES | IC50 [µM] |
| --- | --- |
| CN(C)c1ccccc1C1c2c(C(C)(C)C)n[nH]c2C(=O)N1c1ccc(-c2ccon2)cc1 (stereo not drawn) [II-119] | 0.137 |
| Cc1ncccc1C1c2c(C(C)(C)C)n[nH]c2C(=O)N1c1ccc(-c2cccs2)cc1 (stereo not drawn) [II-121] | 0.464 |
| Cc1ncccc1C1c2c(C(C)(C)C)n[nH]c2C(=O)N1c1ccc(-c2ccsc2)cc1 (stereo not drawn) [II-123] | 0.431 |
| COCc1ncccc1C1c2c(C(C)(C)C)n[nH]c2C(=O)N1c1ccc(-c2ccsc2)cc1 (stereo not drawn) [II-126] | 0.221 |
| COC(=O)COCc1ncccc1C1c2c(C(C)(C)C)n[nH]c2C(=O)N1c1ccc(-c2ccsc2)cc1 (stereo not drawn) [II-128] | 0.216 |
| COCCOc1ccccc1C1c2c(C(C)(C)CO)n[nH]c2C(=O)N1c1ccc(-c2ccon2)cc1 (stereo not drawn) [II-132] | 0.141 |
| COCc1ncccc1C1c2c(C(C)C)n[nH]c2C(=O)N1c1ccc(-c2ccsc2)cc1 (stereo not drawn) [II-133] | 0.116 |
| COc1ccccc1C1c2c(C(C)(C)CO)n[nH]c2C(=O)N1c1ccc(-c2noc(C)n2)cc1 (stereo not drawn) [II-137] | 0.148 |
| COc1ccccc1C1c2c(C(C)(C)CO)n[nH]c2C(=O)N1c1nc2ccccc2s1 (stereo not drawn) [II-139] | 0.332 |
| CNc1cc(-c2ccc(N3C(=O)c4[nH]nc(C(C)(C)C)c4C3c3ccccc3OC)cc2)on1 (stereo not drawn) [II-146] | 0.416 |
| COc1ccccc1C1c2c(C(C)(C)C)n[nH]c2C(=O)N1c1ccc(-c2cc(NC(C)=O)no2)cc1 (stereo not drawn) [II-147] | 0.977 |
| COc1ccccc1C1c2c(C(F)(F)F)n[nH]c2C(=O)N1c1ccc(-c2ccon2)cc1 (stereo not drawn) [II-148] | 0.311 |
| C=C(C)c1n[nH]c2c1C(c1ccccc1OC)N(c1ccc(-c3ccon3)cc1)C2=O (stereo not drawn) [II-149] | 0.377 |
| COc1ccccc1C1c2c(C(C)(C)C)n[nH]c2C(=O)N1c1ccc(C(C)(C)O)cc1 (stereo not drawn) [II-151] | 0.65 |
| COc1ccccc1C1c2c(C(C)(C)C)n[nH]c2C(=O)N1c1ccc(C(C)=O)cc1 (stereo not drawn) [II-155] | 0.322 |
| CO/N=C(/C)c1ccc(N2C(=O)c3[nH]nc(C(C)(C)C)c3C2c2ccccc2OC)cc1 (stereo not drawn) [II-156] | 0.412 |

Further compounds by falling IC50, results first:

| IC50 [µM] | SMILES |
| --- | --- |
| 0.114 | CC(C)(C)c1n[nH]c2c1C(c1ccccc1O)N(c1ccc(-c3ccon3)cc1)C2=O (stereo not drawn) [II-107] |
| 0.112 | COc1ccc(F)cc1C1c2c(C(C)(C)C)n[nH]c2C(=O)N1c1ccc(-c2ccon2)cc1 (stereo not drawn) [II-062] |
| 0.107 | CC(C)c1n[nH]c2c1C(c1ccccc1C(=O)O)N(c1ccc(-c3ccsc3)cc1)C2=O (stereo not drawn) [II-089] |
| 0.105 | COc1ccccc1C1c2c(CC(C)(C)C)n[nH]c2C(=O)N1c1ccc(-c2ccon2)cc1 (stereo not drawn) [II-073] |
| 0.104 | COc1ccc2nc(N3C(=O)c4[nH]nc(C(C)(C)CO)c4C3c3ccccc3OC)sc2c1 (stereo not drawn) [II-142] |
| 0.091 | COc1ncccc1C1c2c(C(C)(C)CO)n[nH]c2C(=O)N1c1ccc(-c2ccco2)cc1 (stereo not drawn) [II-111] |
| 0.088 | CC(C)(C)c1n[nH]c2c1C(c1ccccc1C(=O)O)N(c1ccc(-c3ccsc3)cc1)C2=O (stereo not drawn) [II-131] |
| 0.075 | COc1ccccc1C1c2c(C3(CO)CCCCC3)n[nH]c2C(=O)N1c1ccc(-c2ccon2)cc1 (stereo not drawn) [II-064] |
| 0.065 | CC(C)c1n[nH]c2c1C(c1ccccc1CC(=O)O)N(c1ccc(-c3ccsc3)cc1)C2=O (stereo not drawn) [II-094] |
| 0.055 | COc1ccccc1C1c2c(C(C)(C)CO)n[nH]c2C(=O)N1c1ccc(-c2cc(C)no2)cc1 (stereo not drawn) [II-136] |
| 0.046 | CSc1ccccc1C1c2c(C(C)(C)C)n[nH]c2C(=O)N1c1ccc(-c2ccon2)cc1 (stereo not drawn) [II-099] |
| 0.044 | CC(=O)N(C)c1ccccc1C1c2c(C(C)C)n[nH]c2C(=O)N1c1ccc(-c2ccsc2)cc1 (stereo not drawn) [II-082] |
| 0.044 | COc1ccccc1C1c2c(C(C)(C)CO)n[nH]c2C(=O)N1c1ccc(-c2nc(C)no2)cc1 (stereo not drawn) [II-138] |
| 0.036 | CC(C)(C)c1n[nH]c2c1C(c1cccc[n+]1[O-])N(c1ccc(-c3cccs3)cc1)C2=O (stereo not drawn) [II-164] |
| 0.034 | COc1ccccc1C1c2c(C(C)(C)C(=O)O)n[nH]c2C(=O)N1c1ccc(-c2cccs2)cc1 (stereo not drawn) [II-163] |
| 0.033 | CCC(CC)(CO)c1n[nH]c2c1C(c1ccccc1OC)N(c1ccc(-c3ccon3)cc1)C2=O (stereo not drawn) [II-145] |
| 0.032 | CC(C)(C)c1n[nH]c2c1C(c1cccc[n+]1[O-])N(c1ccc(-c3ccsc3)cc1)C2=O (stereo not drawn) [II-074] |
| 0.032 | CC(C)c1n[nH]c2c1C(c1ccccc1CO)N(c1ccc(-c3ccsc3)cc1)C2=O (stereo not drawn) [II-086] |
| 0.031 | CC(C)(C)c1n[nH]c2c1C(c1ccccc1OCCO)N(c1ccc(-c3ccon3)cc1)C2=O (stereo not drawn) [II-100] |
| 0.027 | CCOc1ccccc1C1c2c(C(C)(C)C)n[nH]c2C(=O)N1c1ccc(-c2ccon2)cc1 (stereo not drawn) [II-101] |
| 0.024 | COc1ccccc1C1c2c(C3CC3)n[nH]c2C(=O)N1c1ccc(-c2ccsc2)cc1 (stereo not drawn) [II-083] |
| 0.024 | COc1ncccc1C1c2c(C(C)(C)CO)n[nH]c2C(=O)N1c1ccc(-c2cccs2)cc1 (stereo not drawn) [II-110] |
| 0.023 | CC(=O)Nc1ccccc1C1c2c(C(C)C)n[nH]c2C(=O)N1c1ccc(-c2ccsc2)cc1 (stereo not drawn) [II-085] |

| IC50 [µM] | SMILES |
| --- | --- |
| 0.022 | COc1ccccc1C1c2c(C(C)(C)CO)n[nH]c2C(=O)N1c1ccc(-c2nccs2)cc1 (stereo not drawn) [II-141] |
| 0.021 | COc1ncccc1C1c2c(C(C)(C)CO)n[nH]c2C(=O)N1c1ccc(-c2ccsc2)cc1 (stereo not drawn) [II-109] |
| 0.018 | CC(C)c1n[nH]c2c1C(c1ccccc1CN(C)C)N(c1ccc(-c3ccsc3)cc1)C2=O (stereo not drawn) [II-084] |
| 0.016 | CC(C)c1n[nH]c2c1C(c1ccccc1OCCN(C)C)N(c1ccc(-c3ccsc3)cc1)C2=O (stereo not drawn) [II-078] |
| 0.015 | CC(C)(C)c1n[nH]c2c1C(c1ccccc1OCC#N)N(c1ccc(-c3ccon3)cc1)C2=O (stereo not drawn) [II-108] |
| 0.013 | CC(C)(C)c1n[nH]c2c1C(c1ccccc1OCCO)N(c1ccc(-c3ccco3)cc1)C2=O (stereo not drawn) [II-105] |
| 0.012 | C[S+]([O-])CCOc1ccccc1C1c2c(C(C)(C)C)n[nH]c2C(=O)N1c1ccc(-c2ccsc2)cc1 (stereo not drawn) [II-076] |
| 0.012 | COC(=O)Nc1ccccc1C1c2c(C(C)C)n[nH]c2C(=O)N1c1ccc(-c2ccsc2)cc1 (stereo not drawn) [II-095] |
| 0.012 | COCCOc1ccccc1C1c2c(C(C)(C)C)n[nH]c2C(=O)N1c1ccc(-c2cccs2)cc1 (stereo not drawn) [II-114] |
| 0.011 | COc1ccccc1C1c2c(C(C)C)n[nH]c2C(=O)N1c1ccc(-c2ccsc2)cc1 (stereo not drawn) [II-079] |
| 0.011 | CC(C)c1n[nH]c2c1C(c1ccccc1OCC[S+](C)[O-])N(c1ccc(-c3ccsc3)cc1)C2=O (stereo not drawn) [II-080] |
| 0.011 | COCCOc1ccccc1C1c2c(C(C)(C)C)n[nH]c2C(=O)N1c1ccc(-c2ccsc2)cc1 (stereo not drawn) [II-115] |
| 0.01 | COCCOc1ccccc1C1c2c(C(C)(C)C)n[nH]c2C(=O)N1c1ccc(-c2ccoc2)cc1 (stereo not drawn) [II-125] |
| 0.009 | CC(C)c1n[nH]c2c1C(c1ccccc1NC(N)=O)N(c1ccc(-c3ccsc3)cc1)C2=O (stereo not drawn) [II-087] |
| 0.008 | CC(C)(C)c1n[nH]c2c1C(c1ccccc1OCCO)N(c1ccc(-c3ccoc3)cc1)C2=O (stereo not drawn) [II-124] |
| 0.004 | CC(C)c1n[nH]c2c1C(c1ccccc1NS(C)(=O)=O)N(c1ccc(-c3ccsc3)cc1)C2=O (stereo not drawn) [II-088] |
| 0.004 | CC(C)c1n[nH]c2c1C(c1ccccc1OCC#N)N(c1ccc(-c3ccsc3)cc1)C2=O (stereo not drawn) [II-127] |
| 0.004 | COCCOc1ccccc1C1c2c(C(C)(C)CO)n[nH]c2C(=O)N1c1ccc(-c2ccsc2)cc1 (stereo not drawn) [II-130] |
| 0.003 | CC(C)(C)c1n[nH]c2c1C(c1ccccc1OCCO)N(c1ccc(-c3ccsc3)cc1)C2=O (stereo not drawn) [II-104] |
| 0.002 | CC(C)c1n[nH]c2c1C(c1ccccc1C(N)=O)N(c1ccc(-c3ccsc3)cc1)C2=O (stereo not drawn) [II-090] |
| 0.002 | CC(C)c1n[nH]c2c1C(c1ccccc1C(=O)NCCO)N(c1ccc(-c3ccsc3)cc1)C2=O (stereo not drawn) [II-091] |
| 0.002 | CNC(=O)c1ccccc1C1c2c(C(C)C)n[nH]c2C(=O)N1c1ccc(-c2ccsc2)cc1 (stereo not drawn) [II-092] |
| 0.002 | CC(C)c1n[nH]c2c1C(c1ccccc1C(=O)N(C)C)N(c1ccc(-c3ccsc3)cc1)C2=O (stereo not drawn) [II-093] |
